The compounds below were run against S. pneumoniae Topoisomerase IV ATPase (ParE) (Streptococcus pneumoniae serotype 4, UniProt Q59961) (assay: S. pneumoniae Topoisomerase IV ATPase inhibition). Conditions: values marked * are an average of two or more data points, read-out: % Inh (13 μM) of S. pneumoniae Topoisomerase IV ATPase.
S. pneumoniae Topoisomerase IV ATPase (ParE), sequence (Q59961 whole entry): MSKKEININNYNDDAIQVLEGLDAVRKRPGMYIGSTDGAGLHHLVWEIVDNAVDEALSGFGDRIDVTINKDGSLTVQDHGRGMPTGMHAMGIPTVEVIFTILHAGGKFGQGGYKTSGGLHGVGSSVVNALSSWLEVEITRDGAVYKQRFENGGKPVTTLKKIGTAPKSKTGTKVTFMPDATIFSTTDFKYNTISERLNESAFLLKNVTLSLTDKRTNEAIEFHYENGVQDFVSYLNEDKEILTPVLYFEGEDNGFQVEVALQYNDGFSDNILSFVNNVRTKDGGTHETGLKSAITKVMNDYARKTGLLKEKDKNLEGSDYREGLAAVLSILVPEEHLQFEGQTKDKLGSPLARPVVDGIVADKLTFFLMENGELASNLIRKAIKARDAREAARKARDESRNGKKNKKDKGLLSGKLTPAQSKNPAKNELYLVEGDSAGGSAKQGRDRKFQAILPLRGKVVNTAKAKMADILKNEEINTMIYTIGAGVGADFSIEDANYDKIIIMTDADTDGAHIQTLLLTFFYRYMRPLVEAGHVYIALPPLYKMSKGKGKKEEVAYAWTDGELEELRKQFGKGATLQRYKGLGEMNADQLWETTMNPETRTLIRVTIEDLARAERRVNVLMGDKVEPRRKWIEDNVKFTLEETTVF
Assay type: biochemical
Procedure, shortened: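 Malachite green/ammonium molybdate phosphate detection, A650. 1.25 nM ParE, 160 μM ATP, sheared salmon sperm DNA 5 μg/ml, 20 mM Tris pH 8.0, 8.0 mM MgCl2. Controls: 2% DMSO = 0%, 20 μM EDTA = 100% inhibition; IC50 over 10 concentrations.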
`CC1CN(c2nc(Nc3ccc(F)c(Cl)c3)ncc2-c2cccc(/C=C/C(=O)O)c2)CC(C)O1` (centres unmarked) [Example 286, (E)-3-(3-(2-(3-chloro-4-fluorophenylamino)-4-(2,6-dimethylmorpholin-)-pyrimidin-5-yl)phenyl)acrylic acid] was tested, and the inhibition at 13 µM was 89.8%. In the case of `COc1cc(Nc2ncc(-c3cncc(C(=O)NCCS(C)(=O)=O)c3)c(-n3nc(C(F)(F)F)cc3C)n2)cc(OC)c1` [Example 685, 5-{2-[(3,5-dimethoxyphenyl)amino]-4-[5-methyl-3-(trifluoromethyl)-1H-pyrazol-1-yl]pyrimidin-5-yl}-N-[2-(methylsulfonyl)ethyl]pyridine-3-carboxamide], the inhibition at 13 µM is reported as 100%. With `Cc1cc(C(F)(F)F)nn1-c1nc(Nc2ccc(F)c(Cl)c2)ncc1-c1cnc(OCCS(C)(=O)=O)c(C(=O)O)c1` [Example 956, 5-(2-(3-chloro-4-fluorophenylamino)-4-(5-methyl-3-(trifluoromethyl)-1H-pyrazol-1-yl)pyrimidin-5-yl)-2-(2-(methylsulfonyl)ethoxy)nicotinic acid] the inhibition at 13 µM was 100%. For `O=C(O)c1cncc(-c2cnc(Nc3ccc(F)c(Cl)c3)nc2NCCN2CCOCC2)c1` [Example 227, 5-[2-(3-Chloro-4-fluoro-phenylamino)-4-(2-morpholin-4-yl-ethylamino)-pyrimidin-5-yl]-nicotinic acid], the inhibition at 13 µM was 79%. `COc1cc(Nc2ncc(-c3cnc(OC)c(C(=O)NS(=O)(=O)c4cccc(C(C)=O)c4)c3)c(-n3nc(C(F)(F)F)cc3C)n2)cc(OC)c1` [Example 844, N-[(3-acetylphenyl)sulfonyl]-5-{2-[(3,5-dimethoxyphenyl)amino]-4-[5-methyl-3-(trifluoromethyl)-1H-pyrazol-1-yl]pyrimidin-5-yl}-2-methoxypyridine-3-carboxamide] was tested, and the inhibition at 13 µM was 100%. `O=C(O)c1cc(-c2cnc(Nc3ccc(F)c(Cl)c3)nc2-n2ccc(C(F)(F)F)n2)cnc1OCCn1ccnc1` [Example 797, 5-{2-[(3-chloro-4-fluorophenyl)amino]-4-[3-(trifluoromethyl)-1H-pyrazol-1-yl]pyrimidin-5-yl}-2-[2-(1H-imidazol-1-yl)ethoxy]pyridine-3-carboxylic acid] showed an inhibition at 13 µM of 100%. In the case of `COc1cc(Nc2ncc(-c3cnc(OC)c(C(=O)NS(=O)(=O)C4=CCS(=O)(=O)C4)c3)c(-n3nc(C(F)(F)F)cc3C)n2)cc(OC)c1` [Example 840, 5-{2-[(3,5-dimethoxyphenyl)amino]-4-[5-methyl-3-(trifluoromethyl)-1H-pyrazol-1-yl]pyrimidin-5-yl}-N-[(1,1-dioxido-2,5-dihydrothiophen-3-yl)sulfonyl]-2-methoxypyridine-3-carboxamide], the inhibition at 13 µM is reported as 99%. Compound `N#Cc1cc(Nc2ncc(-c3cncc(C(=O)O)c3)c(N3CCOCC3)n2)ccc1F` [Example 440] has an inhibition at 13 µM of 85%. `CCOC(=O)c1cncc(-c2cnc(Nc3ccc(F)c(Cl)c3)nc2NCCCN2CCCC2=O)c1` [Example 91, 5-{2-(3-Chloro-4-fluoro-phenylamino)-4-[3-(2-oxo-pyrrolidin-1-yl)-propylamino]-pyrimidin-5-yl}-nicotinic acid ethyl ester] gave an inhibition at 13 µM of 83.1%. For `Cc1ccc(Nc2ncc(-c3ccc(C(=O)O)s3)c(NCCCN(C)C)n2)cc1C#N` [Example 337, 5-(2-(3-cyano-4-methylphenylamino)-4-(3-(dimethylamino)propylamino)pyrimidin-5-yl) thiophene-2-carboxylic acid], the inhibition at 13 µM was 64.4%. `O=C(O)c1cc(-c2cnc(Nc3ccc(F)c(Cl)c3)nc2N2CCOCC2)cc([N+](=O)[O-])c1` [Example 490, 3-{2-[(3-chloro-4-fluorophenyl)amino]-4-(morpholin-4-yl)pyrimidin-5-yl}-5-nitrobenzoic acid] gave an inhibition at 13 µM of 100%. With `O=C(O)c1cncc(-c2cnc(Nc3ccc(F)c(Cl)c3)nc2N2CCC(O)CC2)c1` [Example 244, 5-[2-[(3-chloro-4-fluorophenyl)amino]-4-(4-hydroxypiperidin-1-yl)pyrimidin-5-yl]pyridine-3-carboxylic acid] the inhibition at 13 µM was 76.3%. In the case of `Cc1cc(C#N)cc(Nc2ncc(-c3cncc(C(=O)O)c3)c(-n3nc(C(F)(F)F)cc3C)n2)c1` [Example 785, 5-{2-[(3-cyano-5-methylphenyl)amino]-4-[5-methyl-3-(trifluoromethyl)-1H-pyrazol-1-yl]pyrimidin-5-yl}pyridine-3-carboxylic acid], the inhibition at 13 µM is reported as 100%. Compound `COc1cc(Nc2ncc(-c3cnc(OC)c(C(=O)NS(C)(=O)=O)c3)c(-n3ccc(C4CC4)n3)n2)cc(OC)c1` [Example 1152, 5-(4-(3-cyclopropyl-1H-pyrazol-1-yl)-2-(3,5-dimethoxyphenylamino)pyrimidin-5-yl)-2-methoxy-N-(methylsulfonyl)nicotinamide] has an inhibition at 13 µM of 100%. With `CS(=O)(=O)c1cccc(Nc2ncc(-c3cncc(C(=O)O)c3)c(-n3ccc(C(F)(F)F)n3)n2)c1` [Example 643, 5-(2-{[3-(methylsulfonyl)phenyl]amino}-4-[3-(trifluoromethyl)-1H-pyrazol-1-yl]pyrimidin-5-yl)pyridine-3-carboxylic acid] the inhibition at 13 µM was 100%. For `O=C(O)c1cncc(-c2cnc(Nc3ccc(F)c(Cl)c3)nc2-n2ccc(C(F)(F)F)n2)c1` [Example 320, 5-{2-[(3-chloro-4-fluorophenyl)amino]-4-[3-(trifluoromethyl)-1H-pyrazol-1-yl]pyrimidin-5-yl}pyridine-3-carboxylic acid], the inhibition at 13 µM was 101%. Compound `COc1cc(Nc2ncc(-c3cncc(C(=O)O)c3)c(-n3nc(C(F)(F)F)cc3C)n2)cc(S(C)(=O)=O)c1` [Example 673, 5-(2-{[3-methoxy-5-(methylsulfonyl)phenyl]amino}-4-[5-methyl-3-(trifluoromethyl)-1H-pyrazol-1-yl]pyrimidin-5-yl)pyridine-3-carboxylic acid] has an inhibition at 13 µM of 100%. `CNC(=O)/C=C/c1cccc(-c2cnc(Nc3ccc(F)c(Cl)c3)nc2N2CCOCC2)c1` [Example 375, (E)-3-(3-(2-(3-chloro-4-fluorophenylamino)-4-morpholinopyrimidin-5-yl)phenyl)-1H-methylacrylamide] gave an inhibition at 13 µM of 75.9%. For `O=C(O)c1cncc(-c2cnc(Nc3ccc(F)c(Cl)c3)nc2NCCCN2CCCC2=O)c1` [Example 219, 5-{2-(3-Chloro-4-fluoro-phenylamino)-4-[3-(2-oxo-pyrrolidin-1-yl)-propylamino]-pyrimidin-5-yl}-nicotinic acid], the inhibition at 13 µM was 79%. For `O=C(O)c1cncc(-c2cnc(Nc3ccc(F)c(Cl)c3)nc2-n2ccnn2)c1` [Example 329, 5-{2-[(3-chloro-4-fluorophenyl)amino]-4-(1H-1,2,3-triazol-1-yl)pyrimidin-5-yl}pyridine-3-carboxylic acid], the inhibition at 13 µM was 116%. For `CCCS(=O)(=O)NC(=O)c1cc(-c2cnc(Nc3cc(OC)cc(OC)c3)nc2-n2ccc(C(F)(F)F)n2)cnc1OC` [Example 816, 5-{2-[(3,5-dimethoxyphenyl)amino]-4-[3-(trifluoromethyl)-1H-pyrazol-1-yl]pyrimidin-5-yl}-2-methoxy-N-(propylsulfonyl)pyridine-3-carboxamide], the inhibition at 13 µM was 100%. Work on `CCn1cc(-c2cnc(Nc3ccc(F)c(Cl)c3)nc2-n2nc(C(F)(F)F)cc2C)cc(C(=O)O)c1=O` [Example 1086, 5-(2-(3-Chloro-4-fluorophenylamino)-4-(5-methyl-3-(trifluoromethyl)-1H-pyrazol-1-yl)pyrimidin-5-yl)-1-ethyl-2-oxo-1,2-dihydropyridine-3-carboxylic acid] yielded an inhibition at 13 µM of 92%. With `COCCCNc1nc(Nc2ccc(F)c(Cl)c2)ncc1-c1ccc(C(=O)O)s1` [Example 178, 5-(2-(3-chloro-4-fluorophenylamino)-4-(3-methoxypropylamino)-pyrimidin-5-yl)thiophene-2-carboxylic acid] the inhibition at 13 µM was 83%. In the case of `COc1cc(Nc2ncc(-c3cnc(OC)c(C(=O)NS(=O)(=O)c4cn(C)nc4C(F)(F)F)c3)c(-n3nc(C(F)(F)F)cc3C)n2)cc(OC)c1` [Example 845, 5-{2-[(3,5-dimethoxyphenyl)amino]-4-[5-methyl-3-(trifluoromethyl)-1H-pyrazol-1-yl]pyrimidin-5-yl}-2-methoxy-N-{[1-methyl-3-(trifluoromethyl)-1H-pyrazol-4-yl]sulfonyl}pyridine-3-carboxamide], the inhibition at 13 µM is reported as 92%. Work on `COc1cc(-c2cnc(Nc3ccc(F)c(Cl)c3)nc2NCCCN(C)C)cc(OC)c1OC` [Example 10, N^2-(3-chloro-4-fluorophenyl)-N^4-(3-(dimethylamino)propyl)-5-(3,4,5-trimethoxyphenyl)pyrimidin-2,4-diamine] yielded an inhibition at 13 µM of 99.3%. In the case of `NC(=O)c1cccc(Nc2ncc(-c3cccc(/C=C/C(=O)O)c3)c(-n3ccc(C(F)(F)F)n3)n2)c1` [Example 690, (2E)-3-(3-{2-[(3-carbamoylphenyl)amino]-4-[3-(trifluoromethyl)-1H-pyrazol-1-yl]pyrimidin-5-yl}phenyl)prop-2-enoic acid], the inhibition at 13 µM is reported as 100%. `CCOC(=O)c1cncc(-c2cnc(Nc3ccc(F)c(Cl)c3)nc2NCCc2ccccn2)c1` [Example 101, 5-[2-(3-Chloro-4-fluoro-phenylamino)-4-(2-pyridin-2-yl-ethylamino)-pyrimidin-5-yl]-nicotinic acid ethyl ester] showed an inhibition at 13 µM of 8.69%. In the case of `CONC(=O)c1cncc(-c2cnc(Nc3ccc(F)c(Cl)c3)nc2-n2nc(C(F)F)cc2C)c1` [Example 546, 5-{2-[(3-chloro-4-fluorophenyl)amino]-4-[3-(difluoromethyl)-5-methyl-1H-pyrazol-1-yl]pyrimidin-5-yl}-N-methoxypyridine-3-carboxamide], the inhibition at 13 µM is reported as 100%. `CONC(=O)c1cncc(-c2cnc(Nc3cc(OC)cc(OC)c3)nc2-n2nc(C(F)(F)F)cc2C)c1` [Example 681, 5-{2-[(3,5-dimethoxyphenyl)amino]-4-[5-methyl-3-(trifluoromethyl)-1H-pyrazol-1-yl]pyrimidin-5-yl}-N-methoxypyridine-3-carboxamide] showed an inhibition at 13 µM of 100%.

— patent US20100137313A1 (ASTRAZENECA AB, priority 2008, published 2010)
